Test results from patent publication US7795305B2, “CDDO-compounds and combination therapies thereof” (Board of Regents, The University of Texas System, priority 2000, dated 2010).

Legend:
ERK1/2 in U937 cells = assay: ERK1/2 phosphorylation, Western blot; format: cell-based, human; details: 1 μM, 3 hours
Experimental: Western blot analysis. An equal amount of protein lysate was placed on 12% SDS-PAGE for 2 hours at 100 volts, followed by transfer of the protein to a Nytran membrane (S&S, Heween, N.H.) and immunoblotting. Polyclonal rabbit antibodies to Bcl-2, Bcl-XL, and Bax were kindly provided by Dr. J. C. Reed. Antibodies against PARP was obtained from PharMingen (San Diego, Calif.), DFF-45 from Oncogene (Cambridge, Mass.), XIAP from Transduction Laboratories (Lexington, Ky.), caspase-3 from PharMingen, phospho-specific anti-pERK1/2 antibodies from Calbiochem (San Diego, Calif.). A specific antibody recognizing only the p20-processed caspase-3 band was provided by Idun Pharmaceutical, Inc. (La Jolla, Calif.).
Since PKC-α and the MAP kinases ERK1 (p44) and ERK2 (p42) have been identified as physiologic Bcl-2 kinases, studies were performed to assess their activation status. […] However, both ERK1 and ERK2 were prominently detected in the mitochondrial membranes. […] Treatment of K562 cells with 1 μM of CDDO-Me in vivo abrogated ERK kinase activity similar to specific MEK inhibitor […]. No effect on Akt activity was seen. These findings indicate that CDDO-Me induces apoptosis by inhibition of ERK1/2 and Bcl-2 phosphorylation.

U937 cells = assay: Mitochondrial membrane potential; format: cell-based, human
Experimental: Cytofluorometric analysis of the Δψm. To evaluate the Δψm, cells were incubated with the cationic lipophilic dye […] (CMXRos; 150 nM; Molecular Probes, Inc., Eugene, Oreg.). CMXRos is incorporated into mitochondria driven by the […] and reacts with thiol residues to form covalent thiol ester bonds. CMXRos fluorescence was recorded by flow cytometry in the FL3 channel. Background values of the apoptosis of control cells cultured without the CDDO-Me or in DMSO-solvent control (<10% CMXRos-low) were subtracted from the values obtained under the experimental conditions.
An early mitochondrial disruption has been observed in a number of different models of apoptosis. Changes in the cellular content of the cationic lipophilic fluorochrome CMXRos were determined by FACS analysis to measure loss of the mitochondrial membrane potential (Δψ) (Macho et al., 1996). […] Similarly, exposure of HL-60 to CDDO-Me (1 μM) for 2 and 4 hrs increased the number of cells with low JC-1 (57 and 60%) or CMXRos staining (46 and 57%), both assays measuring the decrease in Δψ. CDDO-Me-induced changes in the mitochondrial membrane potential of the cells preceded caspase activation and changes in the composition of the plasma membrane. […]

PPARγ LBD = biological target: T1, PPARγ LBD (Homo sapiens, UniProt P37231); assay: Scintillation proximity assay (SPA), competition binding; details: read-out: Ki, competition with [3H]-rosiglitazone for binding to PPARγ LBD
T1 construct: bacterially expressed PPARγ LBD; made in house
T1 sequence (P37231 238-503 limits assumed): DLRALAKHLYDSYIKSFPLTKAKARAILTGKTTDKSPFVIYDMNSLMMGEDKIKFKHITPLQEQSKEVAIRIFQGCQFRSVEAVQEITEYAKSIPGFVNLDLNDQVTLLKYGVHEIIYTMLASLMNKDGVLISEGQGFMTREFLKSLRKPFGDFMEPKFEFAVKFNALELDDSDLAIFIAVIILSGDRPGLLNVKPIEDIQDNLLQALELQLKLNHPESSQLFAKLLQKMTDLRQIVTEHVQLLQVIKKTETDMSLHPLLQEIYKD
Excerpt: PPARγ, a member of a family of nuclear receptors, induces differentiation and growth arrest in preadipocyte cells and can mediate inflammatory processes.

[1] = system: wt-PPARγ-transfected D9 cells; assay: Annexin V / cell number in wt-PPARγ-transfected D9 cells; format: cell-based
Experimental: Annexin V staining. Cells were washed in phosphate-buffered saline (PBS) and resuspended in 100 μl of binding buffer containing Annexin V (Roche Diagnostic Corporation, Indianapolis, Ind.). Cells were analyzed by flow cytometry after the addition of propidium iodide (PI). Annexin V binds to those cells that express phosphatidylserine on the outer layer of the cell membrane, and PI stains the cellular DNA of those cells with a compromised cell membrane. This allows for live cells (unstained with either fluorochrome) to be discriminated from apoptotic cells (stained only with annexin V) and necrotic cells (stained with both annexin and PI).
(§1) To characterize the correlation between PPARγ and caspase activation, caspase-3 levels in D9 cells transfected with wt-PPARγ were analyzed. Six different single cell-derived clones were treated with 3 μM CDDO or vehicle controls for 5 hrs. Caspase-3 cleavage was analyzed by Western blot. A decrease in pro-caspase-3 with appearance of the cleaved product was readily observed in all clones. The degree of cleavage was higher in PPARγ-transfected than in vector control cells that express endogenous PPARγ. […] These changes correlated with plasma membrane changes: vector control=47.0% annexin V-positive cells; wt-PPARγ-transfected cells=73.3±1.1% annexin V (+), n=6. […] PPARγ-transfected cells were also more sensitive to PPARγ-ligand 15d-PGJ2 (41.00% vs 16.0% annexin (+) cells at 3 μM).
as §1, with “(41.0%” for “(41.00%”
The sensitivity of leukemic cells that overexpress PPARγ to CDDO-induced killing was tested. Vector control (pcDNA) or wt-PPARγ-transfected D9 cells (2 different clones) were treated 0.2 μM of CDDO for 48 hrs. Cell viability was assessed by cell count after Trypan blue exclusion, and apoptosis determined by PS/annexin V/Propidium Iodide (PI) flow cytometry. Leukemic cells transfected with PPARγ expressed 2.8-3.7-fold higher amounts of protein compared with vector controls. […] Importantly, CDDO increased PPARγ expression in both, vector control and transfected cells. […]

| SMILES | activation of ERK1/2 (ERK1/2 phosphorylation) (ERK1/2 in U937 cells) | cells with decreased Δψ (U937 cells; CDDO-Me alone) [%] | cells with decreased Δψ (U937 cells; after DEVD pretreatment) [%] | Ki (PPARγ LBD) [µM] | annexin V (+) cells ([1]; 3 μM (CDDO: 5 hrs, n=6)) [%] | cell number decreased by ([1]; 3 μM CDDO) [%] | higher sensitivity compared to vector-control cells ([1]; all six single cell-derived subclones, 0.2 μM CDDO, 48 hrs) [%] |
| --- | --- | --- | --- | --- | --- | --- | --- |
| COC(=O)[C@]12CCC(C)(C)C[C@H]1[C@H]1C(=O)C=C3[C@@]4(C)C=C(C#N)C(=O)C(C)(C)[C@@H]4CC[C@@]3(C)[C@]1(C)CC2 [CDDO-Me] | blocked the activation of ERK1/2 | 40 | 4 |  |  |  |  |
| CC1(C)CCC2(C(=O)O)CCC3(C)C(C(=O)C=C4C5(C)C=C(C#N)C(=O)C(C)(C)C5CCC43C)C2C1 (stereo not shown) [CDDO, 2-cyano-3,12-dioxoolen-1,9-dien-28-oic acid] |  |  |  | 0.012 | 73.3±1.1 | 48.8±12.4 | > 50 |
